# Literature values in patent US20230035389A1, “ANTIVIRAL COMPOSITION BASED ON EXTRACTS OF […] […] USEFUL FOR TREATING LESIONS CAUSED BY […] VIRUS” (PONTIFICIA UNIVERSIDAD CATOLICA DE CHILE, priority 2019, published 2023).
# System: herpes simplex virus
# Conditions: topical, background statement
compound,measurement,value
Nc1nc2c(ncn2COCCO)c(=O)[nH]1 [Acyclovir],Reduction of the duration of herpetic lesions,1.0 days
